Measurements from the supplement of paper PMC10307832.

Assays:
Assay in all cases: relative viability (nuclei count vs DMSO), 5 days (fraction); higher = more cells survive
NCI-H520 = system: NCI-H520
In short: (§1)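 The day after seeding in 1536-well plates, lung cancer cell lines were treated by pin tool with a single drug, or with a fixed anchor-drug dose together with five library-drug doses (not always all listed) in √10 steps. After 5 days, a combined fix-and-stain solution (final 0.05% Triton X-100, 1% formaldehyde, 1 ug/ml Hoechst) was added. Nuclei counted on 4× images gave relative viability as treated counts over vehicle counts, reported as the median of duplicate plates.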

NCI-H1755 = system: NCI-H1755
In short: as §1

PC-3 [JPC-3] = system: PC-3 [JPC-3]
In short: as §1

LK-2 = system: LK-2
In short: as §1

NCI-H596 = system: NCI-H596
In short: as §1

ChaGo-K-1 = system: ChaGo-K-1
In short: as §1

EKVX = system: EKVX
In short: as §1

NCI-H441 = system: NCI-H441
In short: as §1

A-427 = system: A-427
In short: as §1

COR-L 105 = system: COR-L 105
In short: as §1

SK-MES-1 = system: SK-MES-1
In short: as §1

H3255 = system: H3255
In short: as §1

NCI-H23 = system: NCI-H23
In short: as §1

NCI-H2170 = system: NCI-H2170
In short: as §1

SW 900 = system: SW 900
In short: as §1

LOU-NH91 = system: LOU-NH91
In short: as §1

NCI-H1975 = system: NCI-H1975
In short: as §1

HCC-366 = system: HCC-366
In short: as §1

NCI-H1734 = system: NCI-H1734
In short: as §1

EMC-BAC-2 = system: EMC-BAC-2
In short: as §1

NCI-H1666 = system: NCI-H1666
In short: as §1

Which relative viability (NCI-H520; first compound 0.005 µM) does the source give for COc1cc2nccc(Oc3ccc(NC(=O)Nc4cc(C)on4)c(Cl)c3)c2cc1OC [Tivozanib] + Nc1ncn([C@H]2C[C@H](O)[C@@H](CO)O2)c(=O)n1 [Decitabine] (partner 2 µM) here?
Its relative viability is 0.442.

What about the relative viability (NCI-H520; first compound 0.01581 µM) of the same compound?
The relative viability was 0.448.

And the relative viability (NCI-H520; first compound 0.05 µM)?
Its relative viability is 0.444.

What about the relative viability (NCI-H520; first compound 0.1581 µM) of the same compound?
Its relative viability is 0.56.

And the relative viability (NCI-H520; first compound 0.5 µM)?
Its relative viability is 0.351.

What about the relative viability (NCI-H1755; first compound 0.005 µM) of the same compound?
The relative viability was 0.716.

And the relative viability (NCI-H1755; first compound 0.01581 µM)?
Its relative viability is 0.74.

What about the relative viability (NCI-H1755; first compound 0.05 µM) of the same compound?
The relative viability was 0.688.

And the relative viability (NCI-H1755; first compound 0.1581 µM)?
Its relative viability is 0.744.

What about the relative viability (NCI-H1755; first compound 0.5 µM) of the same compound?
Its relative viability is 0.704.

And the relative viability (PC-3 [JPC-3]; first compound 0.01581 µM)?
The relative viability was 0.843.

What about the relative viability (PC-3 [JPC-3]; first compound 0.05 µM) of the same compound?
The relative viability was 0.805.

What about the relative viability (PC-3 [JPC-3]; first compound 0.1581 µM) of the same compound?
The relative viability was 0.815.

What about the relative viability (PC-3 [JPC-3]; first compound 0.5 µM) of the same compound?
The relative viability was 0.831.

And the relative viability (LK-2; first compound 0.005 µM)?
The relative viability was 0.275.

And the relative viability (LK-2; first compound 0.01581 µM)?
The relative viability was 0.322.

And the relative viability (LK-2; first compound 0.05 µM)?
The relative viability was 0.334.

And the relative viability (LK-2; first compound 0.1581 µM)?
The relative viability was 0.204.

And the relative viability (LK-2; first compound 0.5 µM)?
Its relative viability is 0.206.

What about the relative viability (NCI-H596; first compound 0.005 µM) of the same compound?
The relative viability was 0.975.

And the relative viability (NCI-H596; first compound 0.01581 µM)?
Its relative viability is 0.994.

What about the relative viability (NCI-H596; first compound 0.05 µM) of the same compound?
Its relative viability is 1.15.

And the relative viability (NCI-H596; first compound 0.5 µM)?
Its relative viability is 1.03.

And the relative viability (ChaGo-K-1; first compound 0.005 µM)?
The relative viability was 0.458.

What about the relative viability (ChaGo-K-1; first compound 0.01581 µM) of the same compound?
The relative viability was 0.498.

What about the relative viability (ChaGo-K-1; first compound 0.05 µM) of the same compound?
Its relative viability is 0.515.

What about the relative viability (ChaGo-K-1; first compound 0.1581 µM) of the same compound?
Its relative viability is 0.543.

What about the relative viability (ChaGo-K-1; first compound 0.5 µM) of the same compound?
The relative viability was 0.489.

What about the relative viability (EKVX; first compound 0.005 µM) of the same compound?
The relative viability was 0.308.

What about the relative viability (EKVX; first compound 0.01581 µM) of the same compound?
The relative viability was 0.353.

What about the relative viability (EKVX; first compound 0.05 µM) of the same compound?
The relative viability was 0.386.

And the relative viability (EKVX; first compound 0.1581 µM)?
Its relative viability is 0.363.

And the relative viability (EKVX; first compound 0.5 µM)?
Its relative viability is 0.313.

What about the relative viability (NCI-H441; first compound 0.005 µM) of the same compound?
Its relative viability is 0.262.

And the relative viability (NCI-H441; first compound 0.01581 µM)?
The relative viability was 0.25.

What about the relative viability (NCI-H441; first compound 0.05 µM) of the same compound?
Its relative viability is 0.218.

And the relative viability (NCI-H441; first compound 0.1581 µM)?
Its relative viability is 0.281.

What about the relative viability (NCI-H441; first compound 0.5 µM) of the same compound?
Its relative viability is 0.224.

What about the relative viability (A-427; first compound 0.005 µM) of the same compound?
Its relative viability is 0.566.

And the relative viability (A-427; first compound 0.01581 µM)?
Its relative viability is 0.551.

And the relative viability (A-427; first compound 0.05 µM)?
Its relative viability is 0.575.

What about the relative viability (A-427; first compound 0.1581 µM) of the same compound?
The relative viability was 0.566.

And the relative viability (A-427; first compound 0.5 µM)?
The relative viability was 0.543.

What about the relative viability (COR-L 105; first compound 0.005 µM) of the same compound?
The relative viability was 0.677.

What about the relative viability (COR-L 105; first compound 0.01581 µM) of the same compound?
Its relative viability is 0.638.

And the relative viability (COR-L 105; first compound 0.05 µM)?
Its relative viability is 0.731.

What about the relative viability (COR-L 105; first compound 0.1581 µM) of the same compound?
The relative viability was 0.627.

What about the relative viability (COR-L 105; first compound 0.5 µM) of the same compound?
Its relative viability is 0.628.

What about the relative viability (SK-MES-1; first compound 0.005 µM) of the same compound?
The relative viability was 0.363.

What about the relative viability (SK-MES-1; first compound 0.01581 µM) of the same compound?
Its relative viability is 0.363.

And the relative viability (SK-MES-1; first compound 0.05 µM)?
The relative viability was 0.371.

What about the relative viability (SK-MES-1; first compound 0.1581 µM) of the same compound?
The relative viability was 0.393.

And the relative viability (SK-MES-1; first compound 0.5 µM)?
Its relative viability is 0.435.

And the relative viability (H3255; first compound 0.005 µM)?
The relative viability was 0.541.

What about the relative viability (H3255; first compound 0.01581 µM) of the same compound?
Its relative viability is 0.592.

And the relative viability (H3255; first compound 0.05 µM)?
Its relative viability is 0.591.

What about the relative viability (H3255; first compound 0.1581 µM) of the same compound?
Its relative viability is 0.552.

What about the relative viability (H3255; first compound 0.5 µM) of the same compound?
The relative viability was 0.77.

And the relative viability (NCI-H23; first compound 0.005 µM)?
Its relative viability is 0.304.

And the relative viability (NCI-H23; first compound 0.01581 µM)?
The relative viability was 0.279.

And the relative viability (NCI-H23; first compound 0.05 µM)?
Its relative viability is 0.3.

And the relative viability (NCI-H23; first compound 0.5 µM)?
The relative viability was 0.309.

What about the relative viability (NCI-H2170; first compound 0.005 µM) of the same compound?
The relative viability was 0.463.

And the relative viability (NCI-H2170; first compound 0.01581 µM)?
Its relative viability is 0.495.

And the relative viability (NCI-H2170; first compound 0.05 µM)?
The relative viability was 0.489.

And the relative viability (NCI-H2170; first compound 0.5 µM)?
The relative viability was 0.458.

What about the relative viability (SW 900; first compound 0.005 µM) of the same compound?
Its relative viability is 0.454.

And the relative viability (SW 900; first compound 0.01581 µM)?
The relative viability was 0.411.

What about the relative viability (SW 900; first compound 0.05 µM) of the same compound?
Its relative viability is 0.454.

What about the relative viability (SW 900; first compound 0.5 µM) of the same compound?
The relative viability was 0.389.

What about the relative viability (LOU-NH91; first compound 0.005 µM) of the same compound?
Its relative viability is 0.772.

What about the relative viability (LOU-NH91; first compound 0.01581 µM) of the same compound?
The relative viability was 0.8.

And the relative viability (LOU-NH91; first compound 0.05 µM)?
The relative viability was 0.808.

What about the relative viability (LOU-NH91; first compound 0.1581 µM) of the same compound?
The relative viability was 0.752.

And the relative viability (LOU-NH91; first compound 0.5 µM)?
Its relative viability is 0.796.

And the relative viability (NCI-H1975; first compound 0.005 µM)?
The relative viability was 0.36.

And the relative viability (NCI-H1975; first compound 0.01581 µM)?
Its relative viability is 0.414.

What about the relative viability (NCI-H1975; first compound 0.05 µM) of the same compound?
The relative viability was 0.352.

And the relative viability (NCI-H1975; first compound 0.1581 µM)?
The relative viability was 0.362.

What about the relative viability (NCI-H1975; first compound 0.5 µM) of the same compound?
The relative viability was 0.405.

And the relative viability (HCC-366; first compound 0.005 µM)?
Its relative viability is 0.334.

What about the relative viability (HCC-366; first compound 0.01581 µM) of the same compound?
Its relative viability is 0.306.

What about the relative viability (HCC-366; first compound 0.05 µM) of the same compound?
The relative viability was 0.346.

What about the relative viability (HCC-366; first compound 0.1581 µM) of the same compound?
The relative viability was 0.349.

And the relative viability (HCC-366; first compound 0.5 µM)?
Its relative viability is 0.378.

What about the relative viability (NCI-H1734; first compound 0.005 µM) of the same compound?
Its relative viability is 0.493.

And the relative viability (NCI-H1734; first compound 0.01581 µM)?
The relative viability was 0.428.

What about the relative viability (NCI-H1734; first compound 0.05 µM) of the same compound?
The relative viability was 0.513.

What about the relative viability (NCI-H1734; first compound 0.1581 µM) of the same compound?
The relative viability was 0.431.

What about the relative viability (NCI-H1734; first compound 0.5 µM) of the same compound?
The relative viability was 0.5.

And the relative viability (EMC-BAC-2; first compound 0.005 µM)?
The relative viability was 1.02.

What about the relative viability (EMC-BAC-2; first compound 0.01581 µM) of the same compound?
The relative viability was 0.977.

And the relative viability (EMC-BAC-2; first compound 0.05 µM)?
The relative viability was 0.952.

And the relative viability (EMC-BAC-2; first compound 0.1581 µM)?
Its relative viability is 0.927.

And the relative viability (EMC-BAC-2; first compound 0.5 µM)?
Its relative viability is 0.975.

And the relative viability (NCI-H1666; first compound 0.005 µM)?
The relative viability was 0.664.

And the relative viability (NCI-H1666; first compound 0.01581 µM)?
Its relative viability is 0.683.

What about the relative viability (NCI-H1666; first compound 0.05 µM) of the same compound?
Its relative viability is 0.784.

What about the relative viability (NCI-H1666; first compound 0.1581 µM) of the same compound?
The relative viability was 0.665.

And the relative viability (NCI-H1666; first compound 0.5 µM)?
The relative viability was 0.643.
